Measured values from article PMC5499624 (Biomolecules & Therapeutics, 2017).
Counter-ions that a name gives are not always drawn. Like-named read-outs stand apart in the source and are kept apart here.

How the values were obtained:
[1] = test system: [^3H]imperatorin brain uptake; assay type: in vivo, SD rats; conditions: compound 1 mM, ICAP 4 ml/min for 15 sec, pH 7.4
[2] = test system: [^3H]imperatorin uptake by TR-BBB cells; experiment: Inhibition of [^3H]imperatorin uptake by TR-BBB cells by selected compounds; assay type: in vitro ADME, rat; conditions: compound 1 mM (L-Carnitine: concentration cell empty), 37°C, 5 min
TR-BBB cells [3] = experiment: Uptake of radiolabelled substrates in siRNA-transfected TR-BBB cells; assay type: in vitro ADME, rat; conditions: 37°C, 5 min
[4] = test system: [^3H]imperatorin uptake by TR-BBB cells; assay type: in vitro ADME, rat; conditions: 37°C, 5 min
[5] = test system: [^3H]imperatorin brain uptake; experiment: Brain uptake index; assay type: in vivo, rat; conditions: 15 s after injection
[6] = test system: proton coupled antiporter; conditions: read-out: in vivo Km; mouse, in situ brain perfusion; ref André et al., 2009; cited from earlier work
hCMEC/D3 cells = conditions: ref Kitamura et al., 2014, Sadiq et al., 2011; cited from earlier work
[7] = assay type: in vivo, SD rats; conditions: for AUC: 60 min; for Uptake: 60 min after IV
rat brain = experiment: [^3H]imperatorin brain uptake by internal carotid artery perfusion; assay type: in vivo, SD rats; conditions: ICAP
[8] = [^3H]imperatorin uptake by TR-BBB cells; assay type: in vitro ADME, rat; conditions: rat, pH 7.4
TR-BBB cells [9] = experiment: [^3H]imperatorin uptake by TR-BBB cells; assay type: in vitro ADME, rat
P-glycoprotein (P-gp) = conditions: ref Lili et al. (2013), cited from earlier work
[10] = sucrose; ref Lee and Kang, 2016; cited from earlier work

Compound: C[n+]1ccc(-c2ccccc2)cc1 [MPP+, 1-Methyl-4-phenylpyridinium ion]
- Brain volume of distribution (VD, % of Control) of [^3H]imperatorin [1]: 56.3 ± 5.8 % of Control
- Relative Uptake (% of Control) of [^3H]imperatorin [2]: 81.3 ± 3.9 % of Control
- uptake after siRNA transfection (TR-BBB cells [3]; rPmat siRNA): significantly inhibited

Compound: carbonyl cyanide-p-trifluorome-thoxyphenylhydrazone [FCCP]
- Relative Uptake (% of Control) of [^3H]imperatorin ([4]; 10 μM FCCP, pre-incubated 10 min, pH 7.4): 56.2 ± 6.3 % of Control

Compound: Clc1cccc(Cl)c1N=C1NCCN1 [Clonidine, clonidine hydrochloride]
- BUI of [^3H]imperatorin in presence of inhibitor ([5]; inhibitor 10 mM): 33.9 ± 5.5 %
- Km [6]: 600 µM

Compound: CN(C)CCOC(c1ccccc1)c1ccccc1 [Diphenhydramine, diphenhydramine]
- Km (hCMEC/D3 cells): 59 µM

Compound: CC(C)=CCOc1c2occc2cc2ccc(=O)oc12 [Imperatorin]
- Brain VD relative to [^14C]sucrose ([7]; IV injection, rat brain): about 6 fold
- BBB PS product relative to sucrose ([7]; IV injection, sucrose value from Lee and Kang, 2016): 12 fold
- BBB PS product relative to sucrose ([7]; IV injection, sucrose value from Wu and Pardridge, 1999): 20 fold
- AUCss ([7]; SD rats, single IV, plasma): 38.2 ± 1.5 % ID min/mL
- AUC ([7]; SD rats, single IV, plasma): 22.1 ± 0.8 % ID min/mL
- AUC ([7]; SD rats, single IV, plasma, listed as [^3H]imperatorin): 22 ± 1 % ID min/mL
- Uptake ([7]; brain, SD rats): 0.086 ± 0.008 %ID/g
- Uptake ([7]; heart, SD rats): 1.62 ± 0.10 %ID/g
- Uptake ([7]; kidney, SD rats): 3.70 ± 0.33 %ID/g
- Uptake ([7]; liver, SD rats): 1.21 ± 0.08 %ID/g
- Uptake ([7]; lung, SD rats): 1.68 ± 0.03 %ID/g
- Brain transport compared with control (rat brain; carbonate-free HEPES): markedly decreased
- Vmax of brain influx (rat brain; imperatorin 0–1 mM, pH 7.4): 0.50 µmol/min/g
- Brain transport compared with control (rat brain; mannitol Na+-free buffer): significantly increased
- Kd (unsaturated component, passive diffusion) (rat brain; nonlinear regression): 3.1e-17 µL/min/g
- Km (rat brain; read-out: apparent Km of brain influx, imperatorin 0–1 mM, pH 7.4): 180 µM
- BUI of [^3H]imperatorin in presence of inhibitor ([5]; inhibitor 1 mM): 24.9 ± 3.4 %
- microsomal CLint at 5 min [8]: 17 µL/min/mg
- maximum rate of uptake velocity (Vmax) (TR-BBB cells [9]; 5 min, pH 7.4): 2.22 nmol/mg protein/min
- y-intersection of time course uptake (cell-to-medium ratio) (TR-BBB cells [9]; at 30 sec, Fig. 4): approximately 140 ul/mg protein
- [^3H]Imperatorin uptake compared to control (TR-BBB cells [9]; extracellular pH 6.4): significantly reduced
- [^3H]Imperatorin uptake compared to control (TR-BBB cells [9]; extracellular pH 8.4): markedly increased
- [^3H]Imperatorin uptake compared to control (TR-BBB cells [9]; intracellular acidification by pretreatment with NH4Cl): increased
- [^3H]Imperatorin uptake compared to control (TR-BBB cells [9]; pHi alkalized by 30 mM NH4Cl): reduced
- Km (TR-BBB cells [9]; read-out: Michaelis-Menten constant (Km) of uptake, 5 min, unlabeled imperatorin 0.01∼1 mM, pH 7.4): 59 µM
- uptake after siRNA transfection (TR-BBB cells [3]; rPmat, rOct 2, rOctn2 or rOctn1 siRNA): not significantly affected
- IC50 (P-glycoprotein (P-gp); P-gp inhibition): > 90 µM
- efflux ratio (P-glycoprotein (P-gp); larger than 3.0 = substrate of P-gp): 0.5

Compound: OC[C@H]1O[C@@](CO)(O[C@H]2O[C@H](CO)[C@@H](O)[C@H](O)[C@H]2O)[C@@H](O)[C@@H]1O [sucrose]
- BBB PS product [10]: 0.32 ± 0.52 µL/min/g

Compound: CNC[C@H](O)[C@@H](O)[C@H](O)[C@H](O)CO [N-Methylglucamine (NMG), N-Methylglucamine]
- Relative Uptake (% of Control) of [^3H]imperatorin ([4]; Na+ replacement by N-methylglucamine): 97.4 ± 6.6 % of Control

Compound: C[N+](C)(C)C[C@H](O)CC(=O)[O-] [L-Carnitine, L-carnitine]
- Brain volume of distribution (VD, % of Control) of [^3H]imperatorin [1]: 79.2 ± 5.3 % of Control
- Relative Uptake (% of Control) of [^3H]imperatorin [2]: 86.4 ± 5.6 % of Control

Compound: [Cl-].[K+] [Potassium ion (KCl)]
- Relative Uptake (% of Control) of [^3H]imperatorin ([4]; sodium replaced by potassium ion (KCl)): 97.3 ± 2.3 % of Control

Compound: CC[N+](CC)(CC)CC [TEA]
- Brain volume of distribution (VD, % of Control) of [^3H]imperatorin [1]: 103 ± 5 % of Control
- BUI of [^3H]imperatorin in presence of inhibitor ([5]; inhibitor 10 mM): 48.6 ± 4.5%
- Relative Uptake (% of Control) of [^3H]imperatorin [2]: 107 ± 10 % of Control

Compound: CN1CCC[C@H]1c1cccnc1 [Nicotine, nicotine]
- BUI of [^3H]imperatorin in presence of inhibitor ([5]; inhibitor 10 mM): 27.6 ± 0.0 %

Compound: CC(=O)O[C@H](CC(=O)[O-])C[N+](C)(C)C [ALC, acetyl-L-carnitine]
- uptake after siRNA transfection (TR-BBB cells [3]; Octn2 siRNA): significantly inhibited

Compound: Nc1ccc(C(=O)NCC(=O)O)cc1 [PAH]
- Brain volume of distribution (VD, % of Control) of [^3H]imperatorin [1]: 94.4 ± 7.1 % of Control
- BUI of [^3H]imperatorin in presence of inhibitor ([5]; inhibitor 10 mM): 58.5 ± 6.3%

Compound: [N-]=[N+]=[N-].[Na+] [Sodium azide, sodium azide]
- Relative Uptake (% of Control) of [^3H]imperatorin ([4]; sodium azide 0.1%, pretreatment, pH 7.4): 63.8 ± 2.7 % of Control

Compound: COc1cccc(C2(O)CCCCC2CN(C)C)c1 (stereo not shown) [Tramadol, tramadol hydrochloride]
- Km (hCMEC/D3 cells): 49 µM
